Laboratory results as given in patent publication US9744164B2, “Neuroprotective polyphenol analogs” (Salk Institute for Biological Studies, priority 2011, dated 2017).

How the values were obtained:
[1] = tested on: HT22 cells; assay: in vitro ischemia assay (HT22 cell IAA assay); type: cell-based, mouse; conditions: for improvement of neuroprotective activity/potency over Fisetin: relative to Fisetin, in vitro ischemia; for increase in survival: 20 μM IAA, over the neuroprotective concentration range
Experimental: For these studies, cultured HT22 mouse hippocampal cells were used as an in vitro stroke assay. HT22 cells were treated with iodoacetic acid (IAA), an irreversible inhibitor of glyceraldehyde 3-phosphate dehydrogenase (G3PDH) for 2 hr alone or in the presence of varying concentrations of Fisetin. G3PDH is an enzyme of the glycolysis pathway, which catalyzes the synthesis of 1,3-bisphosphoglycerate, a “high energy” intermediate used for the synthesis of ATP. Cell survival was measured using a standard colorimetric MTT (3-(4,5-dimethylthiazol-2-yl)-2,5-diphenyltetrazolium bromide) assay for cell survival MTT is a pale yellow substrate that is cleaved by living cells to yield a dark blue formazan product.
Cytotoxicity assay. Cell viability was determined by a modified version of 3-(4,5-dimethylthiazol-2-yl)-2,5-diphenyl tetrazolium bromide (MTT) assay based on the standard procedure (Maher, et al., Brain Research. (2007), supra). Cells were seeded onto 96-well microtiter plates at a density of 5×10^3 cells per well. For the in vitro ischemia assay, the next day, the medium was replaced with DMEM supplemented with 7.5% DFCS and the cells were treated with 20 μM iodoacetic acid (IAA) alone or in the presence of the different derivatives. After 2 hr the medium in each well was aspirated and replaced with fresh medium without IAA but containing the derivatives. 20 hr later, the medium in each well was aspirated and replaced with fresh medium containing 2.5 μg/ml MTT. After 4 hr of incubation at 37° C., the cells were solubilized with 100 μl of a solution containing 50% dimethylformamide and 20% SDS (pH 4.7). The absorbance at 570 nm was measured on the following day with a microplate reader (Molecular Devices). Results were confirmed by visual inspection of the wells. Controls included compound alone to test for toxicity and compound with no cells to test for interference with the assay chemistry.
For a primary screen, an in vitro ischemia model in combination with the HT22 nerve cell line (Maher, et al., Brain Research. (2007) 1173, 117-125) was chosen. […] To induce ischemia in the HT22 cells we used iodoacetic acid (IAA), a well-known, irreversible inhibitor of the glycolytic enzyme glyceraldehyde 3-phosphate dehydrogenase (G3PDH) (Winkler, et al., Exp. Eye Res. (2003) 76, 715-723). IAA has been used in a number of other studies to induce ischemia in nerve cells (Reshef, et al., Neurosci. Lett. (1997) 238, 37-40; Sperling, et al., Neursci. Lett. (2003) 351, 137-140; Rego, et al., Neurochem. Res. (1999) 24, 351-358; Sigalov, et al,. J. Mol. Neurosci. (2000) 15, 147-154; and Reiner, et al., Neurosci. Lett. (1990) 119, 175-178), including several recent screens for neuroprotective molecules (Biraboneye, et al., J. Med. Chem. (2009) 52 (14), 4358-4369; Biraboneye, et al., Chem. Med. Chem. (2010) 5 (1), 79-85). The changes following IAA treatment of neural cells are very similar to those seen in animal models of ischemic stroke (Lipton, et al., Physiol. Rev. (1999) 79, 1431-1568) and include alterations in membrane potential (Reiner, et al., Neurosci. Lett. (1990) 119, 175-178), breakdown of phospholipids (Taylor, et al., J. Pharmacol. Exp. Ther. (1996) 276, 1224-1231), loss of ATP (Winkler, et al., Exp. Eye Res. (2003) 76, 715-723; Sperling, et al., Neursci. Lett. (2003) 351, 137-140) and an increase in reactive oxygen species (ROS) (Taylor, et al., J. Pharmacol. Exp. Ther. (1996), supra; and Sperling, et al., Neursci. Lett. (2003) 351, 137-140).
The roles of the four different hydroxyl groups in the activity of Fisetin were studied. […] Cell viability was determined after 24 hr by the MTT assay. The ability to maintain GSH (GSH) was determined by treating HT22 cells with different doses of each derivative (1-10 μM) in the presence of 5 mM glutamate. After 24 hr cell extracts were prepared and analyzed for total GSH. Fisetin (10 μM) was used as a positive control. […]

[2] = tested on: Nrf2; assay: Nrf2 induction, SDS-PAGE and Western blotting of nuclear extracts; type: cell-based; conditions: cells treated 1, 2 and 4 hr at most protective concentration
Experimental: SDS-PAGE and immunoblotting. For immunoblotting of Nrf2, nuclear extracts were prepared as described (Schreiber, et al., Nucleic Acids Res. (1989) 17 (15), 6419) from untreated cells and cells treated with the Fisetin derivatives for 1, 2 and 4 hr. Fisetin was used as a positive control. […] Protein concentrations were determined using the BCA protein assay (Pierce). Equal amounts of protein were solubilized in 2.5× SDS-sample buffer, separated on 10% SDS-polyacrylamide gels and transferred to nitrocellulose. Equal loading and transfer of the samples was confirmed by staining the nitrocellulose with Ponceau-S. Transfers were blocked for 1 hr at room temperature with 5% nonfat milk in TBS/0.1% Tween 20 and then incubated overnight at 4° C. in the primary antibody diluted in 5% BSA in TBS/0.05% Tween 20. The primary antibodies used were: anti-Nrf2 (#SC13032; 1/1000) from Santa Cruz Biotechnology (Santa Cruz, Calif.) and anti-β-actin (#5125; 1/20,000) from Cell Signaling (Beverly, Mass.). The transfers were rinsed with TB S/0.05% Tween 20 and incubated for 1 hr at room temperature in horseradish peroxidase-goat anti-rabbit or goat anti-mouse (Biorad, Hercules, Calif.) diluted 1/5000 in 5% nonfat milk in TBS/0.1% Tween 20. The immunoblots were developed with the Super Signal reagent (Pierce, Rockford, Ill.).
The transcription factor Nrf2 plays a key role in regulating GSH metabolism in many different cell types (Lewerenz, et al., Antioxidant & Redox Signaling. (2011) 14, 1449-1465). We have shown that Fisetin can induce Nrf2 and this correlates with its ability to enhance GSH levels (Maher, P. et al., Genes. Nutr. (2009) Sep. 10). To determine if the derivatives which can maintain GSH levels do so by increasing Nrf2 we looked at Nrf2 levels in the nuclei of derivative-treated cells using Fisetin as a positive control (Table 4). […] This was particularly true for the derivatives based on the quinoline scaffold where none of them increased Nrf2 despite being very effective at maintaining GSH levels.
The ability of the derivatives that maintain GSH levels to induce the transcription factor Nrf2 was assayed by SDS-PAGE and Western blotting of nuclear extracts of untreated and derivative-treated cells. Fisetin treatment was used as a positive control.

Structure (SMILES)	improvement of neuroprotective activity/potency over Fisetin [1]	Nrf2 (induction of transcription factor Nrf2) [2]	increase in survival ([1]; HT22 cells)	improvement of neuroprotective activity relative to CMS-007 [1] [fold]	EC50 in vitro ischemia ([1]; HT22 cells, 20 μM IAA 2 hr, viability by MTT after 24 hr, 'no' = no protection)
O=c1c(O)c(-c2ccc(O)c(O)c2)oc2ccccc12 [CMS-04P, reference compound]	~6 fold	Yes	–	–	–
O=c1cc(-c2ccccc2)oc2cc(O)c(O)c(O)c12 [Baicalein, 5,6,7-trihydroxyflavone]	–	–	greater than 80%	–	–
Oc1ccc(-c2cc(OC3CCCC3)c3ccccc3n2)cc1O [CMS-121, 4-cyclopentyloxy-2-(3,4-dihydroxyphenyl)quinoline]	> 400 fold	No	–	–	–
CCOc1cc(-c2ccc(O)c(O)c2)nc2ccccc12 [CMS-023, 4-ethoxy-2-(3,4-dihydroxyphenyl)quinoline]	~140 fold	No	–	~2	–
O=c1c(O)c(-c2ccc(O)c(O)c2)oc2cc(O)ccc12 [Fisetin, 3,7,3′,4′-tetrahydroxy flavone]	–	Yes	greater than 85%	–	–
CC(C)Oc1cc(-c2ccc(O)c(O)c2)nc2ccccc12 [CMS-024, 4-isopropoxy-2-(3,4-dihydroxyphenyl)quinoline]	–	No	–	~2	–
COc1ccc(/C=C/C(=O)c2cc(C)c(C)cc2O)cc1OCc1ccccc1 [CMS-086, (E)-3-(3-(benzyloxy)-4-methoxyphenyl)-1-(2-hydroxy-4,5-dimethylphenyl)prop-2-en-1-one]	–	Yes	–	–	no
COc1cc(-c2ccc(O)c(O)c2)nc2ccccc12 [CMS-007, 4-methoxy-2-(3,4-dihydroxyphenyl)quinoline]	~75 fold	No	–	–	–
O=c1c(O)c(-c2ccc(N3CCCC3)c(O)c2)oc2c1ccc1ccccc12 [CMS-140, 3-hydroxy-2-(3-hydroxy-4-(pyrrolidin-1-yl)phenyl)-4H-benzo[h]chromen-4-one]	up to 600 fold	No	–	–	–
